Experimental findings from US20230181546A1, “TREATMENT OF RESPIRATORY DISEASES WITH AMINO ACID COMPOUNDS” (Pliant Therapeutics, Inc., priority 2020, published 2023) are described below.

recombinant human integrin αVβ6, sequence (P06756 31-992 limits assumed): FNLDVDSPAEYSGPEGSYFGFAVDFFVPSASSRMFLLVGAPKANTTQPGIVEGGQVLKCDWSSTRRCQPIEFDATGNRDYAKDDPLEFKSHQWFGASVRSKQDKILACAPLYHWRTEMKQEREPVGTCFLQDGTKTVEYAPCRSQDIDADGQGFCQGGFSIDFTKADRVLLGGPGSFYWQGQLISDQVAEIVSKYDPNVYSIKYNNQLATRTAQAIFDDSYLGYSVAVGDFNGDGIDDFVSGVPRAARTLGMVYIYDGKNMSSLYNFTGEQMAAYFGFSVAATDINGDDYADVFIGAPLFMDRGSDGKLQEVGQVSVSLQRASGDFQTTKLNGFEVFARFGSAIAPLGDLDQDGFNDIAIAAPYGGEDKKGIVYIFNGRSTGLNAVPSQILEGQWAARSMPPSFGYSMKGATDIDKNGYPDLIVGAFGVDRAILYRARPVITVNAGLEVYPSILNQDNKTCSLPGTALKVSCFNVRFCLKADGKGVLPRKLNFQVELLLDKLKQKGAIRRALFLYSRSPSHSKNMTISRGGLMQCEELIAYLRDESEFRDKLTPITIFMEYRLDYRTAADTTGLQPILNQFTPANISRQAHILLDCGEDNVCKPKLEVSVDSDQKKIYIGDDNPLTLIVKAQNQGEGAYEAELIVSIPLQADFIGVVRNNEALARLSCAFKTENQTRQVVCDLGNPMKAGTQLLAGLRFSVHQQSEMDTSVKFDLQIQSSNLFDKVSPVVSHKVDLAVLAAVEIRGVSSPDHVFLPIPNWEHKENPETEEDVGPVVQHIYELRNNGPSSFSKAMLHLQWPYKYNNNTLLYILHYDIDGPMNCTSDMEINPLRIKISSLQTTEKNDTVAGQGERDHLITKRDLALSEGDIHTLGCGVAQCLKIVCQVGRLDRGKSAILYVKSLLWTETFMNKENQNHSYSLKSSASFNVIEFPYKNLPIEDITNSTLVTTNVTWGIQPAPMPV
recombinant human integrin αVβ6, sequence (P18564 22-707 limits assumed): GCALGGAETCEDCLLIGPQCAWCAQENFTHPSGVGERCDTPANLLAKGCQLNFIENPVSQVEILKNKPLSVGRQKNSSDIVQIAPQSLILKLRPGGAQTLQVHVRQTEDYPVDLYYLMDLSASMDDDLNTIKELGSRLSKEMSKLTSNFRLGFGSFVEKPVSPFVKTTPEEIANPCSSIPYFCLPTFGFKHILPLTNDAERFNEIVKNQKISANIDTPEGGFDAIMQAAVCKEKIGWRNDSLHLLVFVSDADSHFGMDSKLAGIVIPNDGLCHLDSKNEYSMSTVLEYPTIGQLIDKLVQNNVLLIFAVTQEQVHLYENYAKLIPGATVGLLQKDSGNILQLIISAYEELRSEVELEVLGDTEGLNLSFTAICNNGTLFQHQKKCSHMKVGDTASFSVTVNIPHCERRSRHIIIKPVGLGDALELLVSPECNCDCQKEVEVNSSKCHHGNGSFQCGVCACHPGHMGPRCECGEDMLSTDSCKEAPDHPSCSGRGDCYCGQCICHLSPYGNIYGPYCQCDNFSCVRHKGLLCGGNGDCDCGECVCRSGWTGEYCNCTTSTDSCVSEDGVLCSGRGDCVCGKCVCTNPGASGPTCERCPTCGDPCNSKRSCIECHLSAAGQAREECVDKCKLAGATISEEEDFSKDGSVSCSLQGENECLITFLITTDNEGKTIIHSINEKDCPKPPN

The target of this test is recombinant human integrin αVβ6 (Homo sapiens, UniProt P06756+P18564). Kind of test: Solid phase integrin αVβ6 binding assay (Examples B1, B2). Particulars: TGFβ1 LAP binding, values given in four ranges, read-out: αvβ6 Inhibition IC50 (nM) - range. The procedure:
(§1) Microplates were coated with recombinant human integrin αVβ6 (2 μg/mL) in PBS (100 μL/well 25° C., overnight). The coating solution was removed, washed with wash buffer (0.05% Tween 20: 0.5 mM MnCl2; in 1×TBS). The plate was blocked with 200 μL/well of Block Buffer (1% BSA; 5% sucrose; 0.5 mM MnCl2; in 1×TBS) at 37° C. for 2 h. Dilutions of testing compounds and recombinant TGFβ1 LAP (0.67 μg/mL) in binding buffer (0.05% BSA; 2.5% sucrose; 0.5 mM MnCl2; in 1×TBS) were added. The plate was incubated for 2 hours at 25° C., washed, and incubated for 1 hour with Biotin-Anti-hLAP. Bound antibody was detected by peroxidase-conjugated streptavidin. The IC50 values for testing compounds were calculated by a four-parameter logistic regression.
The compounds tested were compound samples prepared according to procedures described in the Synthetic Examples section, with the stereochemical purity as indicated in the Examples.
as §1, with “A third series of exemplary compounds was selected for testing in the solid phase integrin αVβ6 binding assay. The compounds tested were compound samples prepared according to procedures described in the Synthetic Examples section, with the stereochemical purity as indicated in the Examples. As in Example B1, microplates” for “Microplates”, “20;” for “20:”
One may read the IC50 as the concentration that gives 50% inhibition. As to `Cc1ncccc1OCCN(CCCCc1ccc2c(n1)NCCC2)CC[C@H](Nc1ncnc2cccnc12)C(=O)O` [Compound 54, (S)-4-((2-((2-methylpyridin-3-yl)oxy)ethyl) (4-(5,6,7,8-tetrahydro-1,8-naphthyridin-2-yl)butyl)amino)-2-(pyrido[3,2-d]pyrimidin-4-ylamino) butanoic acid], the IC50 was less than 50 nM.
For the compound `O=C(O)[C@H](CCN(CCCCc1ccc2c(n1)NCCC2)CCOc1ccccc1)Nc1ncc(Br)cn1` [Compound 83, (S)-2-((5-bromopyrimidin-2-yl)amino)-4-((2-phenoxyethyl) (4-(5,6,7,8-tetrahydro-1,8-naphthyridin-2-yl)butyl)amino) butanoic acid], the IC50 is less than 50 nM.
On to `CO[C@H](C)CN(CCCCc1ccc2c(n1)NCCC2)CC[C@H](Nc1ncc(Br)cn1)C(=O)O` [Compound 70, (S)-2-((5-bromopyrimidin-2-yl)amino)-4-(((R)-2-methoxypropyl) (4-(5,6,7,8-tetrahydro-1,8-naphthyridin-2-yl)butyl)amino) butanoic acid], for which the IC50 is less than 50 nM.
Next, `COCCN(CCCCc1ccc2c(n1)NCCC2)CC[C@H](Nc1cc(C(F)F)ncn1)C(=O)O` [Compound 23, (S)-2-((6-(difluoromethyl)pyrimidin-4-yl)amino)-4-((2-methoxyethyl) (4-(5,6,7,8-tetrahydro-1,8-naphthyridin-2-yl)butyl)amino) butanoic acid]: less than 50 nM; `O=C(O)[C@H](CCN(CCCCc1ccc2c(n1)NCCC2)CCOC(F)F)Nc1ncnc2ccccc12` [Compound 35, (S)-4-((2-(difluoromethoxy)ethyl) (4-(5,6,7,8-tetrahydro-1,8-naphthyridin-2-yl)butyl)amino)-2-(quinazolin-4-ylamino) butanoic acid]: less than 50 nM; `O=C(O)[C@H](CCN(CCCCc1ccc2c(n1)NCCC2)CCOc1ccccc1)Nc1ccnc(C(F)(F)F)n1` [Compound 92, (S)-4-((2-phenoxyethyl) (4-(5,6,7,8-tetrahydro-1,8-naphthyridin-2-yl)butyl)amino)-2-((2-(rifluoromethyl)pyrimidin-4-yl)amino) butanoic acid]: less than 50 nM.
Next, `O=C(O)[C@H](CCN(CCCCc1ccc2c(n1)NCCC2)CC(F)F)Nc1ccncn1` [Compound 120, (S)-4-((2,2-difluoroethyl) (4-(5,6,7,8-tetrahydro-1,8-naphthyridin-2-yl)butyl)amino)-2-(pyrimidin-4-ylamino) butanoic acid]: more than 1000 nM.
